These results are taken from publication PMC9852173, “[^111In]In-CP04 as a novel cholecystokinin-2 receptor ligand with theranostic potential in patients with progressive or metastatic medullary thyroid cancer: final results of a GRAN-T-MTC Phase I clinical trial” (European Journal of Nuclear Medicine and Molecular Imaging, 2022).

The subject of series [1] is MTC. Description: [18F]FDG PET/CT restaging prior to enrolment. In kind it is in vivo, human. To be noted: CEA 80 to 2087 ng/mL. The text has this:
Sixteen patients with histologically proven and advanced MTC were enrolled in the study based on the specific inclusion and exclusion criteria. [^18F]FDG PET/CT, ceCT, or MRI imaging (initiated at Ct concentrations above 150 pg/mL or clinical suspicion of disease at a specific site) was positive in 12 patients; in four, short calcitonin doubling time (CtDT) with negative conventional imaging (CT of the neck/thorax, abdomen; [^18F]FDG PET/CT) was present.
It is well accepted that the molecular imaging modalities outperform conventional imaging (US, CT, and MRI in the present study) in the setting of recurrent disease, in particular PET/CT imaging with [^18F]F-DOPA [19–21]. […] With patient-based detection rate of over 80%, [^111In]In-CP04 slightly outperformed conventional and molecular imaging modalities (detection rate of 75%) in the present study. […] However, the patient population in our study was highly preselected and small, which likely affected the results; moreover, the reported detection rate in the mentioned meta-analysis was likely affected by the relatively low Ct concentrations (above 150 pg/mL in only 73% of patients). […]

The conditions of series [2]: in vivo.
Protocol: The duration of [^111In]In-CP04 administration with the low and high mass amount was 5 min and 30 min, respectively. During the injection of the IMP, a dynamic scan of the kidneys and stomach was performed for 30 min (anterior and posterior acquisition). The imaging protocol included a mandatory whole-body scan (WBS) at 1 h, 4 h, 24 h, and 48 h p.i. (table shift speed 12 cm/min). A quantitative SPECT/CT scan of the abdomen was performed at 24 h p.i. as well as an additional non-quantitative SPECT/CT scan of the area where pathological lesions were detected during WBS, if the scan duration was tolerated by the patient. Gelofusine (B. Braun, Melsungen, Germany) was administered as an infusion of 1 mL/kg body weight over 10 min followed by a 3-h infusion of 0.02 mL/kg/min after the injection of the IMPD. Physiological parameters (heart rate, blood pressure, oxygen saturation) were repeatedly measured during and after the [^111In]In-CP04 infusion as per study protocol.
During the [^111In]In-CP04 administration blood samples for dosimetry and pharmacokinetic purposes were taken at the set time intervals according to the study protocol: biodistribution and dosimetry data were acquired based on serial planar and SPECT/CT images, and blood and urine collection at regular time intervals. Urine samples were collected up to 24 h after the tracer injection to determine the bladder wall absorbed dose. On the WBS planar imaging at 1, 4, 24, and 48 h (including standard activity) and quantitative SPECT/CT imaging at 4 and 24 h, the regions of interest (ROI) were drawn over the kidneys and over the lesions when visible. The counts in the ROIs were quantified to activity by cross-calibration with the activity determined in the corresponding volumes of interest (VOIs) drawn on the quantitative SPECT/CT image at 24 h. Time-activity curves were determined by fitting exponential curves through the uptake data. Time integrated activity coefficients (TIAC) were calculated for ^111In and ^177Lu by integration of the TIACs multiplied with their physical decaty functions. The absorbed dose per unit activity in each organ was determined by multiplication with the ^111In and ^177Lu S-values according to the MIRD formalism. The blood time-activity curve was used to estimate the absorbed dose to the bone marrow. The activity concentration in the bone marrow was considered to be equal to the blood activity concentration. The activity and volumes of the urine samples were used to determine the urinary clearance rate, and with the dynamic bladder model, the TIAC in the bladder and the absorbed dose to the bladder wall were determined. The effect on the kidney absorbed dose after co-administration of the nephroprotective agent Gelofusine was evaluated. […]
Details of series [3]: species or system human. To be noted: in vivo. On the procedure:
The primary objective of the trial was the evaluation of the safety of the administration of [^111In]In-CP04 at low mass amount of 10 μg CP04 and at high mass amount of 50 μg CP04 radiolabelled with 200±10% MBq of ^111In. Therefore, the definition of the type, frequency, severity, timing, and relation to the studied radiopharmaceutical administration of Adverse Events assessed by CTCAE v4.0 was used as primary endpoint to define the safety and tolerability of [^111In]In-CP04.
Detailed physical examinations with vital sign assessment, 12-lead ECG, and laboratory testing were performed to investigate the safety of intravenous administration of [^111In]In-CP04. The overall safety profile of the tested CCK-2/gastrin receptor ligand as characterized by timing, type, frequency, severity of adverse events (AE), and laboratory abnormalities was based on Common Terminology Criteria for Adverse Events (CTCAE) version 4.0. Since this was a Phase I clinical trial, the project was assumed as having a high-risk potential for the patient, and therefore, special care was taken with the monitoring of the study. In total, eight control visits were carried out over 4 months of the follow-up with physical examination, laboratory testing, and ECG. Additionally, Ct and proCt concentrations were measured after each [^111In]In-CP04 injection at predefined time points (0, 2, 5, 10, 20 min).
(table shift speed 12 cm/min).

For series [4] the following is noted: in vivo. The source holds these as a separate data set.
Protocol: On the WBS planar imaging at 1, 4, 24, and 48 h (including standard activity) and quantitative SPECT/CT imaging at 4 and 24 h, the regions of interest (ROI) were drawn over the kidneys and over the lesions when visible. The counts in the ROIs were quantified to activity by cross-calibration with the activity determined in the corresponding volumes of interest (VOIs) drawn on the quantitative SPECT/CT image at 24 h. Time-activity curves were determined by fitting exponential curves through the uptake data. Time integrated activity coefficients (TIAC) were calculated for ^111In and ^177Lu by integration of the TIACs multiplied with their physical decaty functions. The absorbed dose per unit activity in each organ was determined by multiplication with the ^111In and ^177Lu S-values according to the MIRD formalism. […] The effect on the kidney absorbed dose after co-administration of the nephroprotective agent Gelofusine was evaluated. All dosimetry calculations were performed with the Hermes-OLINDA v2.1 hybrid 2D dosimetry software.
For series [5], the system named is MTC. To be noted: meta-analysis; cited from earlier work. The text has this:
It is well accepted that the molecular imaging modalities outperform conventional imaging (US, CT, and MRI in the present study) in the setting of recurrent disease, in particular PET/CT imaging with [^18F]F-DOPA [19–21].

Turning to `OC[C@H]1OC(O)[C@H]([18F])[C@@H](O)[C@@H]1O` (stereo partly drawn) [[^18F]FDG], the “PET/CT positivity in the present series” value in series [1] is reported as “only positive in three patients”.

As for `CSCC[C@H](NC(=O)[C@H](Cc1c[nH]c2ccccc12)NC(=O)CNC(=O)[C@H](Cc1ccc(O)cc1)NC(=O)[C@H](C)NC(=O)[C@@H](CCC(=O)O)NC(=O)[C@@H](CCC(=O)O)NC(=O)[C@@H](CCC(=O)O)NC(=O)[C@@H](CCC(=O)O)NC(=O)[C@@H](CCC(=O)O)NC(=O)[C@@H](CCC(=O)O)NC(=O)CN1CCN(CC(=O)O)CCN(CC(=O)O)CCN(CC(=O)O)CC1)C(=O)N[C@@H](CC(=O)O)C(=O)N[C@@H](Cc1ccccc1)C(N)=O` [[^111In]In-CP04, [^111In]In-DOTA-(DGlu)6-Ala-Tyr-Gly-Trp-Met-Asp-Phe-NH2, metal not drawn], in series [2], the kidney absorbed dose worked out at 0.044±0.019 mSv/MBq; the “organs with highest dose” value was “highest dose to urinary bladder, followed by the kidneys and stomach wall”; the “radiation dose for 200 MBq” value was “about 7 mSv”; the “retention of activity in intestines, stomach and kidneys” value is on record as < 1 % of IA. In series [3], the ECG recordings entry is reported as “No significant changes”; the “laboratory test results during control visits” value is listed as “did not change significantly”; the “performance status (Karnofsky index)” value is “did not change”; the “transient tachycardia, duration” value is “less than 5 minutes”. For the same compound, in series [3], the “transient tachycardia, heart rate” value is “up to 128 beats/min”.

In the case of `CSCC[C@H](NC(=O)[C@H](Cc1c[nH]c2ccccc12)NC(=O)CNC(=O)[C@H](Cc1ccc(O)cc1)NC(=O)[C@H](C)NC(=O)[C@@H](CCC(=O)O)NC(=O)[C@@H](CCC(=O)O)NC(=O)[C@@H](CCC(=O)O)NC(=O)[C@@H](CCC(=O)O)NC(=O)[C@@H](CCC(=O)O)NC(=O)[C@@H](CCC(=O)O)NC(=O)CN1CCN(CC(=O)O)CCN(CC(=O)O)CCN(CC(=O)O)CC1)C(=O)N[C@@H](CC(=O)O)C(=O)N[C@@H](Cc1ccccc1)C(N)=O` [CP04, DOTA-(DGlu)6-Ala-Tyr-Gly-Trp-Met-Asp-Phe-NH2], the “projected 177Lu absorbed dose to the kidneys” value in series [4] is recorded as 0.12 Gy/GBq.

Consider `N[C@@H](Cc1cc(O)c(O)cc1[18F])C(=O)O` [[^18F]F-DOPA], for which the “pooled patient-based detection rate” value in series [5] is recorded as 66%.
